US12358966B2, “Inducible caspases and methods for use” (Poseida Therapeutics, Inc., priority 2016, dated 2025)
Where two headings read alike, the source gives them in different places.

Assays:
Human pan T-cells = experiment: iC9 safety switch test: viability of modified T cells by flow cytometry with 7-AAD after incubation with AP1903; type: cell-based; conditions: 24 hours incubation, 0-1000 nM tested
Source text: Human pan T-cells were nucleofected using an Amaxa 4D nucleofector with one of four piggyBac transposons. Modified T cells receiving the “mock” condition were nucleofected with an empty piggyBac transposon. Modified T cells received either a piggyBac […] containing a therapeutic agent alone (a sequence encoding a CARTyrin) or a piggyBac […] containing an integrated iC9 sequence and a therapeutic agent (a sequence encoding a CARTyrin).
To test the iC9 safety switch, each of the four modified T cells were incubated for 24 hours with 0, 0.1 nM, 1 nM, 10 nM, 100 nM or 1000 nM AP1903 (an induction agent for […], also known as Rimiducid). Viability was assessed by flow cytometry using 7-aminoactinomycin D (7-AAD), a fluorescent intercalator, as a marker for cells undergoing apoptosis.
Cell viability was assessed at day 12 (see FIG. 2). […] Moreover, cell viability was assessed at day 19 (see FIG. 3). […]
A quantification of the aggregated results was performed and is provided in FIG. 4, showing the significant impact of the iC9 safety switch on the percent cell viability as a function of the concentration of the induction agent (AP1903, also known as Rimiducid) of the iC9 switch for each modified cell type at either day 12 (FIG. 2 and left graph) or day 19 (FIG. 3 and right graph).

cells [1] = experiment: Amount of AP1903 needed in vitro for effective signaling of cells; type: cell-based; conditions: calculated with 1600 Da MW
Description: The fixed dose of AP1903 (Rimiducid) for injection used, for example, may be 0.4 mg/kg intravenously infused over 2 hours. The amount of AP1903 (Rimiducid) needed in vitro for effective signaling of cells is 10-100 nM (1600 Da MW). This equates to 16-160 μg/L or […]. Doses up to 1 mg/kg were well-tolerated in the Phase I study of AP1903 (Rimiducid) described above. Therefore, 0.4 mg/kg may be a safe and effective dose of AP1903 (Rimiducid) for this Phase I study in combination with the therapeutic cells.

cells [2] = conditions: cited from earlier work
[3] = cited from earlier work
[4] = tested on: cells comprising P-BCMA-101; experiment: In vivo killing of cells comprising P-BCMA-101 via iC9 safety switch in NSG mice (huCD45+ cells in blood, spleen, bone marrow); conditions: AP1903 0.005-5 mg/kg on day 12, analysis 24 hours later
Description: FIG. 5 is a diagram showing a study timeline and outline for an in vivo study. NSG mice were IV injected with MM.1S/luciferase^+ cells, staged at day 8, injected with T cells on day 9, and treated with AP1903 (Rimiducid) on day 12 at the indicated doses. 24 hours later, mice were euthanized and blood, spleen, and bone marrow cells were collected and stained for the presence of huCD45^+ cells.
Blood, spleen, and bone marrow cells were analyzed by flow cytometry for the presence of huCD45^+ cells. The relative viability was determined by: ((#of huCD45 cells/ #of msCD45 cells)/(Average of huCD45/msCD45 in no treatment group))*100% per 1,500 bead events for each sample. Each data point represents a different mouse. On the x-axis is plotted percent Relative CAR-T Viability from 0 to 175 in increments of 25. […]
NSG mice were IV injected with MM.1S/luciferase^+ cells, staged at day 8, injected with T cells on day 9, and treated with AP1903 (Rimiducid) on day 12 at the indicated doses. […] Blood, spleen, and bone marrow cells were analyzed by flow cytometry for the presence of huCD45^+ cells. The relative viability was determined by dividing the number of huCD45 cells by the number of msCD45 cells and normalizing to the average of huCD45/msCD45 in the no treatment group times, 100% per 1,500 bead events for each sample. […]

## CC[C@H](C(=O)N1CCCC[C@H]1C(=O)O[C@H](CCc1ccc(OC)c(OC)c1)c1cccc(OCC(=O)NCCNC(=O)COc2cccc([C@@H](CCc3ccc(OC)c(OC)c3)OC(=O)[C@@H]3CCCCN3C(=O)[C@@H](CC)c3cc(OC)c(OC)c(OC)c3)c2)c1)c1cc(OC)c(OC)c(OC)c1 (relative stereo) [AP1903, 2-Piperidinecarboxylic acid, 1-[(2S)-1-oxo-2-(3,4,5-trimethoxyphenyl)butyl]-, 1,2-ethanediylbis[imino (2-oxo-2,1-ethanediyl)oxy-3,1-phenylene[(1R)-3-(3,4-dimethoxyphenyl)propylidene]]ester, [2S-[1(R*),2R*[S*[S*[1(R*),2R*]]]]]-(9C1)]
Human pan T-cells
  lowest concentration of the study at which apoptosis is induced: 0.1 nM
Cells [1]
  amount needed for effective signaling, converted to dose: 0.016 to 1.6 µg/kg
  amount needed for effective signaling, converted to mass concentration: 16 to 160 µg/L
Cells [2]
  amount needed in vitro for effective signaling of cells: 10 to 100 nM
[3]; 0.01, 0.05, 0.1, 0.5 and 1.0 mg/kg
  plasma levels versus dose: directly proportional to dose
[3]; 0.5 hours post-dose
  plasma level as % of maximal concentration: approximately 18%
[3]; 2 hours post-dose
  plasma level as % of maximal concentration: ~7%
[3]; 10 hours post-dose
  plasma level as % of maximal concentration: ~1%
[3]; Phase I study
  well-tolerated dose: up to 1 mg/kg
[3]; all dose levels 0.01-1.0 mg/kg, single dose IV over 2 hours
  safety and tolerability: safe and well tolerated at all dose levels
[3]; healthy volunteers
  pharmacokinetic profile: favorable pharmacokinetic profile
[3]; over the 0.01-1.0 mg/kg dose range, IV infusion over 2 hours, 24 healthy volunteers
  mean Cmax: 10 to 1275 ng/mL
[4]
  killing of cells comprising P-BCMA-101 in vivo: highly efficient killing
